Columns and labels:
Assay type in all cases: protein assay
[1] = target: T1, Antigen-presenting glycoprotein CD1d (Mus musculus) (UniProt P11609+P11610); experiment: Binding affinity to WTB6 mouse spleen CD1d assessed as restriction ratio for reduction in iNKT/CD1d interaction by FACS analysis relative to control
[2] = target: T1, Antigen-presenting glycoprotein CD1d (Mus musculus); experiment: Binding affinity to WTB6 mouse thymus CD1d assessed as restriction ratio for reduction in iNKT/CD1d interaction by FACS analysis relative to control
[3] = target: T1, Antigen-presenting glycoprotein CD1d (Mus musculus); experiment: Binding affinity to CD1d in Traj18 knock out C57BL/6 mouse assessed as restriction ratio for reduction in iNKT/CD1d interaction by FACS analysis relative to control

SMILES	Ratio [1] [%]	Ratio [2] [%]	Ratio [3] [%]
CCCCCCCCCCCCCC[C@@H](O)[C@@H](O)[C@H](CO[C@H]1O[C@H](CO)[C@H](O)[C@H](O)[C@H]1O)NC(=O)CCCCOc1ccc(/N=N/c2ccccc2)cc1	0.06	0.09	0.28
CCCCCCCCCCCCCC[C@@H](O)[C@@H](O)[C@H](CO[C@H]1O[C@H](CO)[C@H](O)[C@H](O)[C@H]1O)NC(=O)CCCCOc1ccc(/N=N\c2ccccc2)cc1	0.05	0.05	0.57
CCCCCCCCCCCCCC[C@@H](O)[C@@H](O)[C@H](CO[C@H]1O[C@H](CO)[C@H](O)[C@H](O)[C@H]1O)NC(=O)CCCCCCCCOc1ccc(/N=N/c2ccccc2)cc1	0.4	0.28	< 0.02
CCCCCCCCCCCCCC[C@@H](O)[C@@H](O)[C@H](CO[C@H]1O[C@H](CO)[C@H](O)[C@H](O)[C@H]1O)NC(=O)CCCCCCOc1ccc(/N=N\c2ccccc2)cc1	0.42	0.4	< 0.02
CCCCCCCCCCCCCC[C@@H](O)[C@@H](O)[C@H](CO[C@H]1O[C@H](CO)[C@H](O)[C@H](O)[C@H]1O)NC(=O)CCCCCCCCCCOc1ccc(/N=N/c2ccccc2)cc1	0.5	0.36	< 0.02
CCCCCCCCCCCCCCCCCCCCCCCCCC(=O)N[C@@H](CO[C@H]1O[C@H](CO)[C@H](O)[C@H](O)[C@H]1O)[C@H](O)[C@H](O)CCCCCCCCCCCCCC	0.66	0.45	< 0.02
CCCCCCCCCCCCCC[C@@H](O)[C@@H](O)[C@H](CO[C@H]1O[C@H](CO)[C@H](O)[C@H](O)[C@H]1O)NC(=O)CCCCCCCCCCOc1ccc(/N=N\c2ccccc2)cc1	0.57	0.44	< 0.02
CCCCCCCCCCCCCC[C@@H](O)[C@@H](O)[C@H](CO[C@H]1O[C@H](CO)[C@H](O)[C@H](O)[C@H]1O)NC(=O)CCCCCCOc1ccc(/N=N/c2ccccc2)cc1	0.31	0.35	< 0.02
CCCCCCCCCCCCCC[C@@H](O)[C@@H](O)[C@H](CO[C@H]1O[C@H](CO)[C@H](O)[C@H](O)[C@H]1O)NC(=O)CCCCCCCCOc1ccc(/N=N\c2ccccc2)cc1	0.48	0.37	< 0.02
